Assay results published in patent US10207023B2, “Antibacterial calcium-based materials” (NATIONAL CHENG KUNG UNIVERSITY, priority 2012, dated 2019).

How the values were obtained:
[1] = test system: staphylococcus aureus (SA); assay: Disk diffusion assay (antibacterial zone); type: cell-based; settings: for antibacterial behavior: commercially pure lithium compounds, dry- or wet-molded 3 mm high, 6 mm dia. cylinders; for anti-bacterial zones: wet-molded pure Li compound (0.6 M (NH4)2HPO4 setting solution, 1.4 MPa), 6 mm dia. cylinder
Protocol: (§1) To prepare a TSB medium, 6 g Tryptone (Neogen, USA), 2 g Soytone (Soytone BD, USA) and 2 g NaCl (J.T. Baker, USA) were placed into a beaker filled with 400 ml of double distilled water and mixed with a stir bar. After total dissolution, the pH of the solution was adjusted to 7.3 and the solution was autoclaved (121° C., 1.2 kg/cm^2) for 30 min.
as §1, with “TSA” for “TSB”, “USA),” for “USA) and”, “Baker, USA) and 6 g Agar (Neogen,” for “Baker,”, “min. After being sterilized, the TSA medium was poured into a petri dish and allowed hardened. The TSA medium was then placed into an incubator at 30° C.” for “min.”
1 ml staphylococcus aureus (SA) containing TSB medium was transferred into a 15 ml centrifuge tube, wherein 10 ml phosphate buffered saline (PBS) was added and mixed gently. The mixture was centrifuged (KUBOTA 5922, Japan) at 3000 rpm for 10 minutes. The supernatant was removed and a SA pellet remained. 1 ml PBS was then added to suspend the pellet. 20 μl of the SA suspension and 180 μl PBS were transferred into each well of a 96 well plate. The absorbance was assayed using an ELISA reader (Sunrise, Tecan, Switzerland) at 600 nm to determine the bacterial concentration (cfu/ml) (200 μl of PBS was used as a negative control). Once determined, an appropriate volume of SA containing medium was transferred into a 1 micro centrifuge tube, wherein TSB was added to adjust bacterial concentration to 3.5×10^6 (cfu/ml). The tube was shaked for 15 seconds to allow thorough mixing. 100 μl of the SA containing medium was removed and dropped evenly across the agar plate. Once the broth was distributed evenly on agar plate and became almost dry, samples to be tested were placed on top of the agar and the petri dish was covered with a parafilm. The dish was placed in an incubator (LM-570R, Yih Der, Taiwan) at 37° C. for 24 hours. Bacteria colony formation was then observed and colony diameters measured.
After being loaded, the samples were placed on a table for 1 hour to become dry. Four samples were then placed into a 20 ml glass vial, wherein 8 ml Hanks' solution was added with a solid/liquid ratio of 0.1 g/ml. The glass vial was put into a water bath at 37° C. for 1, 2, 3, 5, and 7 days. The Hanks' solution was changed daily. Once having been soaked for desired periods of time, the samples were placed into a 50° C. oven for 24 hours, then stored in a zip lock bag.

S. aureus = assay: Antimicrobial activity measurement (CFU count in TSB); type: cell-based
Protocol: Appropriate amount of UV-sterilized sample (either granule or cement) to be tested was put in a 12-well plate, wherein was added 1 ml Tryptone Soya Broth (TSB) with 10^6 live S. aureusbacteria in each well (concentration: 10^6 colony-forming units (CFU) per ml). S. aureusbacteria were cultured with the sample anaerobically at 37° C. One cultured without sample was considered as a positive control in each study group. The viability of the bacterial suspensions incubated with different samples was assessed using Tryptone Soya Agar (TSA) solid agar plates. After cultivation for 24 h, broth of each well was sequentially diluted and plated. The growth of bacteria was evaluated after cultivation on agar plates at 37° C. for 24 h. Then colony-forming units (CFU) were counted to calculate concentration using the equation,
[formula] and the antimicrobial activity is obtained by the following equation: Antimicrobial activity={[(Conc. of control group)−(conc. of experiment)]/(Conc. of control group)}×100%
Appropriate amounts of UV-sterilized Li3PO4 or Li2CO3 salt were each mixed with 1 ml TSB and tested for their antimicrobial activity values using the aforementioned method.
Appropriate amounts of “65/35” powder were mixed with appropriate amounts of Li3PO4 or Li2CO3 salt to form TTCP/DCPA/CSH/Li salt mixed powder with different Li salt ratios. The mixed powder was mixed with 0.6 M (NH4)2HPO4 solution to form a cement paste. Prior to being fully hardened, the paste was placed in a stainless steel mold under a pressure of 450 Kgf to squeeze a portion of the liquid out of the paste. After being hardened and removed from the mold, the hardened block was crushed and sieved into granules with a particle size range of about 0.4-1.2 mm. 0.2 g UV-sterilized thus-obtained granular sample was mixed with 1 ml TSB and tested for its antimicrobial activity using the aforementioned method.

## O=C([O-])[O-].[Li+].[Li+] [Li2CO3, Lithium carbonate]
[1]
  antibacterial behavior: high antibacterial behavior
  anti-bacterial zones: 18 mm
S. aureus; Li salt amount/TSB 0.06 g/ml
  Antimicrobial activity (24 h): 100%
S. aureus; Li salt amount/TSB 0.08 g/ml
  Antimicrobial activity (24 h): 100%
S. aureus; Li salt amount/TSB 0.10 g/ml
  Antimicrobial activity (24 h): 100%
S. aureus; Li salt amount/TSB 0.12 g/ml
  Antimicrobial activity (24 h): 100%
S. aureus; Li salt amount/TSB 0.14 g/ml
  Antimicrobial activity (24 h): 100%
S. aureus; all Li2CO3 salt samples (0.06-0.14 g/ml TSB)
  24 h antimicrobial activity value: 100%

## [Li+].[Li+].[O-2] [Li2O, Lithium oxide]
[1]
  antibacterial behavior: high antibacterial behavior

## O=S(=O)([O-])[O-].[Li+].[Li+] [Li2SO4, Lithium sulfate]
[1]
  antibacterial behavior: high antibacterial behavior
  anti-bacterial zones: 22 mm

## O=P([O-])([O-])[O-].[Li+].[Li+].[Li+] [Li3PO4, Lithium phosphate]
[1]
  antibacterial behavior: high antibacterial behavior
S. aureus; 0.06-0.12 g Li3PO4 salt in 1 ml TSB
  24 h antimicrobial activity values: 97.4-98.9%
S. aureus; Li salt amount/TSB 0.06 g/ml
  Antimicrobial activity (24 h): 98.9%
S. aureus; Li salt amount/TSB 0.08 g/ml
  Antimicrobial activity (24 h): 98.9%
S. aureus; Li salt amount/TSB 0.10 g/ml
  Antimicrobial activity (24 h): 97.4%
S. aureus; Li salt amount/TSB 0.12 g/ml
  Antimicrobial activity (24 h): 98.8%
S. aureus; Li salt amount/TSB 0.14 g/ml
  Antimicrobial activity (24 h): 99.8%

## [F-].[Li+] [LiF, Lithium fluoride]
[1]
  antibacterial behavior: high antibacterial behavior
